Laboratory results taken from ChEMBL document CHEMBL1201862, “PubChem BioAssay data set” (2004).
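Test compounds were applied to cells in 96-well plates for 48 hours at 5 doses. GI50 = concentration required for 50% inhibition of growth.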 The source made the active and inactive calls. Cut-off read from the data, not from the text of the source: active = GI50 up to about 1.1 µM and inactive = higher.

Legend:
Assay in all cases: NCI anticancer screen, dose series, 48 h
OVCAR-4 = system: OVCAR-4
HCT-15 = system: HCT-15
SK-MEL-5 = system: SK-MEL-5
RPMI-8226 = system: RPMI-8226
MOLT-4 = system: MOLT-4
K562 = system: K562
OVCAR-5 = system: OVCAR-5
HCC 2998 = system: HCC 2998
SF-268 = system: SF-268
SK-MEL-2 = system: SK-MEL-2
SW-620 = system: SW-620
COLO 205 = system: COLO 205
IGROV-1 = system: IGROV-1
TK-10 = system: TK-10
HOP-62 = system: HOP-62
T47D = system: T47D
MDA-MB-231 = system: MDA-MB-231
NCI/ADR-RES = system: NCI/ADR-RES
PC-3 = system: PC-3

SMILES	GI50 (OVCAR-4)	GI50 (HCT-15) [µM]	GI50 (SK-MEL-5)	GI50 (RPMI-8226)	GI50 (MOLT-4)	GI50 (K562)	GI50 (OVCAR-5)	GI50 (HCC 2998)	GI50 (SF-268)	GI50 (SK-MEL-2)	GI50 (SW-620)	GI50 (COLO 205)	GI50 (IGROV-1)	GI50 (TK-10)	GI50 (HOP-62)	GI50 (T47D)	GI50 (MDA-MB-231)	GI50 (NCI/ADR-RES)	GI50 (PC-3)
COc1cc(CNc2nc3c(N)cc(C(F)(F)F)cc3nc2-c2ccccc2)cc(OC)c1OC	8.95 µM (inactive)	14.9	21.3 µM (inactive)	47.3 µM (inactive)	8.83 µM (inactive)	12.1 µM (inactive)	37.4 µM (inactive)	40.6 µM (inactive)	50.8 µM (inactive)	52.1 µM (inactive)	85.1 µM (inactive)	38.5 µM (inactive)	> 10 µM (inactive)	> 10 µM (inactive)	39.5 µM (inactive)	–	–	–	–
Cn1c2c(c3ccccc31)CCN(CCN1CCN(c3ccccc3)CC1)C2=O	–	> 100	61.1 µM (inactive)	> 100 µM (inactive)	> 100 µM (inactive)	> 100 µM (inactive)	–	–	> 100 µM (inactive)	–	> 100 µM (inactive)	> 100 µM (inactive)	> 100 µM (inactive)	> 100 µM (inactive)	–	–	–	–	–
Cc1cc(C)n(C(C)(C(=O)Cc2ccccc2)n2nc(C)cc2C)n1	> 100 µM (inactive)	> 100	> 100 µM (inactive)	> 100 µM (inactive)	> 100 µM (inactive)	> 100 µM (inactive)	> 100 µM (inactive)	> 100 µM (inactive)	> 100 µM (inactive)	> 100 µM (inactive)	> 100 µM (inactive)	> 100 µM (inactive)	> 100 µM (inactive)	> 100 µM (inactive)	> 100 µM (inactive)	> 100 µM (inactive)	> 100 µM (inactive)	> 100 µM (inactive)	> 100 µM (inactive)
CCN(CC)CC(=O)Nc1ccc2c(c1)C(=O)c1ccc(NC(=O)CN(CC)CC)cc1C2=O	39.1 µM (inactive)	36.4	21.2 µM (inactive)	31.3 µM (inactive)	17.8 µM (inactive)	24.7 µM (inactive)	> 100 µM (inactive)	> 100 µM (inactive)	23.1 µM (inactive)	> 100 µM (inactive)	24.9 µM (inactive)	15.2 µM (inactive)	17.7 µM (inactive)	43 µM (inactive)	20.3 µM (inactive)	–	–	–	–
C=CC(=O)NCNC(=O)C=C	> 100 µM (inactive)	> 100	> 100 µM (inactive)	> 100 µM (inactive)	> 100 µM (inactive)	> 100 µM (inactive)	> 100 µM (inactive)	> 100 µM (inactive)	> 100 µM (inactive)	> 100 µM (inactive)	> 100 µM (inactive)	> 100 µM (inactive)	> 100 µM (inactive)	> 100 µM (inactive)	> 100 µM (inactive)	–	–	–	–
Cc1cc(Cl)ccc1NC(=O)C(=O)Cc1ccc([N+](=O)[O-])c([N+](=O)[O-])c1CC(=O)C(=O)Nc1ccc(Cl)cc1C	> 100 µM (inactive)	> 100	> 100 µM (inactive)	> 100 µM (inactive)	> 100 µM (inactive)	> 100 µM (inactive)	> 100 µM (inactive)	> 100 µM (inactive)	> 100 µM (inactive)	> 100 µM (inactive)	> 100 µM (inactive)	61.1 µM (inactive)	> 100 µM (inactive)	> 100 µM (inactive)	> 100 µM (inactive)	–	–	–	–
CSc1cnc2ccccc2c1Sc1cn(C)c2ccccc2c1=O	34.8 µM (inactive)	35.8	24.4 µM (inactive)	17.9 µM (inactive)	53.2 µM (inactive)	7.82 µM (inactive)	> 100 µM (inactive)	70.8 µM (inactive)	9.14 µM (inactive)	21.8 µM (inactive)	70.6 µM (inactive)	17 µM (inactive)	18.7 µM (inactive)	> 100 µM (inactive)	18 µM (inactive)	–	–	–	–
CN1c2ccccc2N(C(=O)c2ccccc2)C(CC(=O)O)c2cccn21 (stereo not drawn)	> 100 µM (inactive)	> 100	> 100 µM (inactive)	> 100 µM (inactive)	> 100 µM (inactive)	> 100 µM (inactive)	> 100 µM (inactive)	> 100 µM (inactive)	> 100 µM (inactive)	> 100 µM (inactive)	> 100 µM (inactive)	> 100 µM (inactive)	> 100 µM (inactive)	> 100 µM (inactive)	> 100 µM (inactive)	–	–	–	–
CCOC(=O)C1=C(C(=O)OCC)C2(c3ccccc3)N(O1)c1ccccc1C2(C)C (stereo not drawn)	18.7 µM (inactive)	–	56.4 µM (inactive)	20.7 µM (inactive)	32 µM (inactive)	42.7 µM (inactive)	99.3 µM (inactive)	93.1 µM (inactive)	31.2 µM (inactive)	30.9 µM (inactive)	94.8 µM (inactive)	51.5 µM (inactive)	41.8 µM (inactive)	> 100 µM (inactive)	37.6 µM (inactive)	–	–	–	–
